In patent US9169254B2, “Spiroimidazolone derivative” (Chugai Seiyaku Kabushiki Kaisha, priority 2009, dated 2015):

Molecular target: T1, human PTH1 receptor (Homo sapiens, UniProt Q03431)
T1 sequence (Q03431 27-593): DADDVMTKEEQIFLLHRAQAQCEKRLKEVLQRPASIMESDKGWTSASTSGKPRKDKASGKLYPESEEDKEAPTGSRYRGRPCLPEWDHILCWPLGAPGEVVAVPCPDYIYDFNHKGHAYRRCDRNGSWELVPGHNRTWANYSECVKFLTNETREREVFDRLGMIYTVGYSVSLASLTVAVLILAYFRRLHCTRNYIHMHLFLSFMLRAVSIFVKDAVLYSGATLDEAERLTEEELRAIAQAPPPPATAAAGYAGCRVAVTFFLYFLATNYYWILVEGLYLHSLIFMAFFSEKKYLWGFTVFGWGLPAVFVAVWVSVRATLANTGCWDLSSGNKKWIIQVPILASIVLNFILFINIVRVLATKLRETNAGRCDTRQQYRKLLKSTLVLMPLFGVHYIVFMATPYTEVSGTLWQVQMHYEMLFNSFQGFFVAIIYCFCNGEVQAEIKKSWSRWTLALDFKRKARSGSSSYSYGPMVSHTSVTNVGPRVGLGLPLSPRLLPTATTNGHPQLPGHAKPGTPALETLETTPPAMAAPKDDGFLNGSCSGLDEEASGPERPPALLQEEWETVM
Assay: In vitro cAMP signal activity in HKRK-B7 cells (LLC-PK1 cells overexpressing the human PTH1 receptor)
Format: cell-based
Details: HKRK-B7 cells; compound at 1×10^−3 M; cAMP produced as percentage of that produced by hPTH(1-34) at 100 nM

cAMP production activity (%)	Structure (SMILES)
50%	CC(=O)N(C)c1c(C)cc(CCS(=O)(=O)N2CCC3(CC2)N=C(C2CCC(C)CC2)NC3=O)cc1C (stereo not drawn) [Compound 783, N-(2,6-dimethyl-4-{2-[2-(4-methyl-cyclohexyl)-4-oxo-1,3,8-triaza-spiro[4.5]dec-1-ene-8-sulfonyl]-ethyl}-phenyl)-N-methyl-acetamide]
84%	CC(=O)N(C)Cc1cc(C)c(CCS(=O)(=O)N2CCC3(CC2)N=C(C2CCC(CCC(F)(F)F)CC2)NC3=O)c(C)c1 (stereo not drawn) [Compound 784, N-[3,5-dimethyl-4-(2-{4-oxo-2-[4-(3,3,3-trifluoro-propyl)-cyclohexyl]-1,3,8-triaza-spiro[4.5]dec-1-ene-8-sulfonyl}-ethyl)-benzyl]-N-methyl-acetamide]
92%	CC(=O)N(C)Cc1cc(C)c(CCS(=O)(=O)N2CCC3(CC2)N=C(C2CCC(C)CC2)NC3=O)c(C)c1 (stereo not drawn) [Compound 785, N-(3,5-dimethyl-4-{2-[2-(4-methyl-cyclohexyl)-4-oxo-1,3,8-triaza-spiro[4.5]dec-1-ene-8-sulfonyl]-ethyl}-benzyl)-N-methyl-acetamide]
57%	Cc1cc(N2CCC(=O)NC2=O)cc(C)c1CCS(=O)(=O)N1CCC2(CC1)N=C(C1CCC(C)CC1)NC2=O (stereo not drawn) [Compound 786, 1-(3,5-dimethyl-4-{2-[2-(4-methyl-cyclohexyl)-4-oxo-1,3,8-triaza-spiro[4.5]dec-1-ene-8-sulfonyl]-ethyl}-phenyl)-dihydro-pyrimidine-2,4-dione]
81%	Cc1cc(C(=O)N(C)N(C)C)cc(C)c1CCS(=O)(=O)N1CCC2(CC1)N=C(C1CCC(CCC(F)(F)F)CC1)NC2=O (stereo not drawn) [Compound 787, 3,5-dimethyl-4-(2-{4-oxo-2-[4-(3,3,3-trifluoro-propyl)-cyclohexyl]-1,3,8-triaza-spiro[4.5]dec-1-ene-8-sulfonyl}-ethyl)-benzoic acid trimethylhydrazide]
142%	O=C1NC(CCCCCCCC(F)(F)C(F)(F)F)=NC12CCN(S(=O)(=O)CCc1cccc3c1ccn3C[C@H](O)CO)CC2 [Compound 788, 8-{2-[1-((S)-2,3-dihydroxy-propyl)-1H-indol-4-yl]-ethanesulfonyl}-2-(8,8,9,9,9-pentafluoro-nonyl)-1,3,8-triaza-spiro[4.5]dec-1-en-4-one]
157%	O=C1NC(CCCCCCCCC(F)(F)F)=NC12CCN(S(=O)(=O)CCc1cccc3c1ccn3C[C@H](O)CO)CC2 [Compound 789, 8-{2-[1-((S)-2,3-dihydroxy-propyl)-1H-indol-4-yl]-ethanesulfonyl}-2-(9,9,9-trifluoro-nonyl)-1,3,8-triaza-spiro[4.5]dec-1-en-4-one]
88%	CCCCCCCCCC1=NC2(CCN(S(=O)(=O)CCc3ccc(N4C(=O)CNC4=O)cc3C)CC2)C(=O)N1 [Compound 790, 3-{3-methyl-4-[2-(2-nonyl-4-oxo-1,3,8-triaza-spiro[4.5]dec-1-ene-8-sulfonyl)-ethyl]-phenyl}-imidazolidine-2,4-dione]
6.1%	Cc1cc2c(ccn2C[C@@H](O)CO)c(C)c1CCS(=O)(=O)N1CCC2(CC1)N=C(C1CCC(CCC(F)(F)F)CC1)NC2=O (stereo partly drawn) [Compound 791, 8-{2-[1-((R)-2,3-dihydroxy-propyl)-4,6-dimethyl-1H-indol-5-yl]-ethanesulfonyl}-2-[4-(3,3,3-trifluoro-propyl)-cyclohexyl]-1,3,8-triaza-spiro[4.5]dec-1-en-4-one]
110%	Cc1cc(N2C(=O)CNC2=O)ccc1CCS(=O)(=O)N1CCC2(CC1)N=C(c1cccc(OC(F)(F)F)c1)NC2=O [Compound 792, 3-(3-methyl-4-{2-[4-oxo-2-(3-trifluoromethoxy-phenyl)-1,3,8-triaza-spiro[4.5]dec-1-ene-8-sulfonyl]-ethyl}-phenyl)-imidazolidine-2,4-dione]
124%	Cc1cc(N2CCOCC2=O)ccc1CCS(=O)(=O)N1CCC2(CC1)N=C(c1cccc(OC(F)(F)F)c1)NC2=O [Compound 793, 8-{2-[2-methyl-4-(3-oxo-morpholin-4-yl)-phenyl]-ethanesulfonyl}-2-(3-trifluoromethoxy-phenyl)-1,3,8-triaza-spiro[4.5]dec-1-en-4-one]
76%	CC(=O)N(CCO)c1cc(C)c(CCS(=O)(=O)N2CCC3(CC2)N=C(c2ccc(F)c(C(F)(F)F)c2)NC3=O)c(C)c1 [Compound 794, N-(4-{2-[2-(4-fluoro-3-trifluoromethyl-phenyl)-4-oxo-1,3,8-triaza-spiro[4.5]dec-1-ene-8-sulfonyl]-ethyl}-3,5-dimethyl-phenyl)-N-(2-hydroxy-ethyl)-acetamide]
97%	CCCCCCCCCC1=NC2(CCN(S(=O)(=O)CCc3ccc(N4C(=O)CNC4=O)cc3C(F)(F)F)CC2)C(=O)N1 [Compound 795, 3-{4-[2-(2-nonyl-4-oxo-1,3,8-triaza-spiro[4.5]dec-1-ene-8-sulfonyl)-ethyl]-3-trifluoromethyl-phenyl}-imidazolidine-2,4-dione]
64%	CCCCCCCCCC1=NC2(CCN(S(=O)(=O)CCc3c(C)cc(C(=O)O)cc3C)CC2)C(=O)N1 [Compound 796, 3,5-dimethyl-4-[2-(2-nonyl-4-oxo-1,3,8-triaza-spiro[4.5]dec-1-ene-8-sulfonyl)-ethyl]-benzoic acid]

The remaining lines, values behind:

Structure (SMILES)	cAMP production activity (%)
CC(=O)NCc1cc(C)c(CCS(=O)(=O)N2CCC3(CC2)N=C(C2CCC(C)CC2)NC3=O)c(C)c1 (stereo not drawn) [Compound 773, N-(3,5-dimethyl-4-{2-[2-(4-methyl-cyclohexyl)-4-oxo-1,3,8-triaza-spiro[4.5]dec-1-ene-8-sulfonyl]-ethyl}-benzyl)-acetamide]	86%
Cc1cc(CN2C(=O)CNC2=O)cc(C)c1CCS(=O)(=O)N1CCC2(CC1)N=C(C1CCC(CCC(F)(F)F)CC1)NC2=O (stereo not drawn) [Compound 774, 3-[3,5-dimethyl-4-(2-{4-oxo-2-[4-(3,3,3-trifluoro-propyl)-cyclohexyl]-1,3,8-triaza-spiro[4.5]dec-1-ene-8-sulfonyl}-ethyl)-benzyl]-imidazolidine-2,4-dione]	80%
Cc1cc(CN2C(=O)NC(C)(C)C2=O)cc(C)c1CCS(=O)(=O)N1CCC2(CC1)N=C(C1CCC(CCC(F)(F)F)CC1)NC2=O (stereo not drawn) [Compound 775, 3-[3,5-dimethyl-4-(2-{4-oxo-2-[4-(3,3,3-trifluoro-propyl)-cyclohexyl]-1,3,8-triaza-spiro[4.5]dec-1-ene-8-sulfonyl}-ethyl)-benzyl]-5,5-dimethyl-imidazolidine-2,4-dione]	70%
Cc1cc(CN2CCCC2=O)cc(C)c1CCS(=O)(=O)N1CCC2(CC1)N=C(C1CCC(CCC(F)(F)F)CC1)NC2=O (stereo not drawn) [Compound 776, 8-{2-[2,6-dimethyl-4-(2-oxo-pyrrolidin-1-ylmethyl)-phenyl]-ethanesulfonyl}-2-[4-(3,3,3-trifluoro-propyl)-cyclohexyl]-1,3,8-triaza-spiro[4.5]dec-1-en-4-one]	79%
Cc1cc(CN2C(=O)CCC2=O)cc(C)c1CCS(=O)(=O)N1CCC2(CC1)N=C(C1CCC(CCC(F)(F)F)CC1)NC2=O (stereo not drawn) [Compound 777, 1-[3,5-dimethyl-4-(2-{4-oxo-2-[4-(3,3,3-trifluoro-propyl)-cyclohexyl]-1,3,8-triaza-spiro[4.5]dec-1-ene-8-sulfonyl}-ethyl)-benzyl]-pyrrolidine-2,5-dione]	71%
Cc1cc(N2C(=O)CNC2=O)c(C)cc1CCS(=O)(=O)N1CCC2(CC1)N=C(C1CCC(C)CC1)NC2=O (stereo not drawn) [Compound 778, 3-(2,5-dimethyl-4-{2-[2-(4-methyl-cyclohexyl)-4-oxo-1,3,8-triaza-spiro[4.5]dec-1-ene-8-sulfonyl]-ethyl}-phenyl)-imidazolidine-2,4-dione]	57%
Cc1cc(CN2C(=O)CNC2=O)cc(C)c1CCS(=O)(=O)N1CCC2(CC1)N=C(C1CCC(C)CC1)NC2=O (stereo not drawn) [Compound 779, 3-(3,5-dimethyl-4-{2-[2-(4-methyl-cyclohexyl)-4-oxo-1,3,8-triaza-spiro[4.5]dec-1-ene-8-sulfonyl]-ethyl}-benzyl)-imidazolidine-2,4-dione]	53%
Cc1cc(CN2C(=O)NC(C)(C)C2=O)cc(C)c1CCS(=O)(=O)N1CCC2(CC1)N=C(C1CCC(C)CC1)NC2=O (stereo not drawn) [Compound 780, 3-(3,5-dimethyl-4-{2-[2-(4-methyl-cyclohexyl)-4-oxo-1,3,8-triaza-spiro[4.5]dec-1-ene-8-sulfonyl]-ethyl}-benzyl)-5,5-dimethyl-imidazolidine-2,4-dione]	48%
Cc1cc(CN2CCCC2=O)cc(C)c1CCS(=O)(=O)N1CCC2(CC1)N=C(C1CCC(C)CC1)NC2=O (stereo not drawn) [Compound 781, 8-{2-[2,6-dimethyl-4-(2-oxo-pyrrolidin-1-ylmethyl)-phenyl]-ethanesulfonyl}-2-(4-methyl-cyclohexyl)-1,3,8-triaza-spiro[4.5]dec-1-en-4-one]	30%
Cc1cc(CN2C(=O)CCC2=O)cc(C)c1CCS(=O)(=O)N1CCC2(CC1)N=C(C1CCC(C)CC1)NC2=O (stereo not drawn) [Compound 782, 1-(3,5-dimethyl-4-{2-[2-(4-methyl-cyclohexyl)-4-oxo-1,3,8-triaza-spiro[4.5]dec-1-ene-8-sulfonyl]-ethyl}-benzyl)-pyrrolidine-2,5-dione]	14%
